Assay results from ChEMBL document CHEMBL3098069, “Azide-alkyne cycloaddition affording enzymatically tunable bisubstrate based inhibitors of histone acetyltransferase PCAF” (Bioorg Med Chem Lett, 2014).
The source made the active and inactive calls. No cut-off for these calls is given here. Square brackets hold non-standard residues; d marks the D form. Peptide text beside a SMILES is read from it. Lys(N3) = [N-]=[N+]=NCCCC[C@H](N)C(=O)O; pS = N[C@@H](COP(=O)(O)O)C(=O)O

How the values were obtained:
[1] = molecular target: T1, Histone acetyltransferase KAT2B (Homo sapiens, UniProt Q92831); assay: Inhibition of PCAF (unknown origin) using histone H3 derived peptide as substrate after 20 mins by fluorescence assay
Target sequence in this assay (Q92831 whole entry): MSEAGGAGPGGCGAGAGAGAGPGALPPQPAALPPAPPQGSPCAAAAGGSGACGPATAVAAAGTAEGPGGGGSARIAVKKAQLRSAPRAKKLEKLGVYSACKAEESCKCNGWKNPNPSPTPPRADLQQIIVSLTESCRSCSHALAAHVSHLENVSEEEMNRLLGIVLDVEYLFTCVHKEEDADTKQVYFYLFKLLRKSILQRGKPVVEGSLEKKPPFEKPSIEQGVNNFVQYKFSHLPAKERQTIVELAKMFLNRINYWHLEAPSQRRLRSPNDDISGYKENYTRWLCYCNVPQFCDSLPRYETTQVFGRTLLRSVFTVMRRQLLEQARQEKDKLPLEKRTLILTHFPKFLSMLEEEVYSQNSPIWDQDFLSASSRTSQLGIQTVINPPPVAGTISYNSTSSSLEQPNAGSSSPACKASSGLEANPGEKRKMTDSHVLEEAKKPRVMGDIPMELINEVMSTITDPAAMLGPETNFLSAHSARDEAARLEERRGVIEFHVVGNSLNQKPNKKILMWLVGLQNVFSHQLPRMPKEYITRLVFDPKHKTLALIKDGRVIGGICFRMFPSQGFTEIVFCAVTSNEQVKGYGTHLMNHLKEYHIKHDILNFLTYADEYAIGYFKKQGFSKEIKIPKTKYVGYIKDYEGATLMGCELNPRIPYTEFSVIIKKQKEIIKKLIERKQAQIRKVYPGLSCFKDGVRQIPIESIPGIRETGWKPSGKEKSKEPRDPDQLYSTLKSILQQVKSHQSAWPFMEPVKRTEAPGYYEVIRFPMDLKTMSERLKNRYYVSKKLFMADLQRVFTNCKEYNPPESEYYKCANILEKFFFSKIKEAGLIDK

[2] = molecular target: T1, Histone acetyltransferase KAT2B; assay: Competitive inhibition of PCAF (unknown origin) using histone H3 derived peptide as substrate after 20 mins by fluorescence assay
Target sequence in this assay (Q92831 whole entry): as above

[3] = molecular target: Serine/threonine-protein kinase pim-1 (Homo sapiens, UniProt P11309); assay: Drug degradation in NEB buffer assessed as PIM1 kinase (unknown origin)-mediated H3-pSer-CoA formation at 1 mg after 60 mins by RP-HPLC analysis; type: ADME; conditions: 1 h
Chain of Serine/threonine-protein kinase pim-1 (P11309 whole entry): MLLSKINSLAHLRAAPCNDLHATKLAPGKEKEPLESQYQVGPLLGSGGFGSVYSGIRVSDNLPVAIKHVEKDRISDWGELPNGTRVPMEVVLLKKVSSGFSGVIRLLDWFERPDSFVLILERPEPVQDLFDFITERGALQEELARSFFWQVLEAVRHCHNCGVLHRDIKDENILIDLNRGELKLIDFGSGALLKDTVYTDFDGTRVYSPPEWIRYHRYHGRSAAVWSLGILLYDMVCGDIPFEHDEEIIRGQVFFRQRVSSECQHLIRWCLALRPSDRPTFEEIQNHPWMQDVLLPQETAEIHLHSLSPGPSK

[4] = Drug degradation in NEB buffer at 1 mg after 10 to 120 mins by RP-HPLC analysis; type: physicochemical
[5] = Drug degradation in NEB buffer assessed as Protein phosphatase 1 (unknown origin)-mediated H3-Ser-CoA formation at 1 mg after 30 mins by RP-HPLC analysis; type: ADME, Homo sapiens; conditions: 0.5 h
[6] = molecular target: T1, Histone acetyltransferase KAT2B; assay: Inhibition of PCAF (unknown origin) using histone H3 derived peptide as substrate at 10^-6 to 10^-3 M after 20 mins by fluorescence assay
Target sequence in this assay (Q92831 whole entry, looked up): as the sequence (Q92831 whole entry) above

| Structure (SMILES) | IC50 [1] [µM] | IC50 [2] [µM] | Drug degradation [3] | Stability [4] | Drug degradation [5] | inhibition [6] |
| --- | --- | --- | --- | --- | --- | --- |
| CC(=O)N[C@@H](C)C(=O)N[C@@H](CCCNC(=N)N)C(=O)N[C@@H](CCCCN)C(=O)N[C@@H](CO)C(=O)N[C@H](C(=O)NCC(=O)NCC(=O)N[C@@H](CCCCn1cc(CSCCNC(=O)CCNC(=O)[C@@H](O)C(C)(C)COP(=O)(O)OP(=O)(O)OC[C@H]2O[C@@H](n3cnc4c(N)ncnc43)[C@H](O)[C@@H]2OP(=O)(O)O)nn1)C(=O)N[C@@H](C)C(=O)N1CCC[C@H]1C(=O)N[C@@H](CCCNC(=N)N)C(=O)N[C@@H](CCCCN)C(N)=O)[C@@H](C)O | 2.8 | 117 | Active | Unstable | – | – |
| CC(=O)N[C@@H](C)C(=O)N[C@@H](CCCNC(=N)N)C(=O)N[C@@H](CCCCN)C(=O)N[C@@H](COP(=O)(O)O)C(=O)N[C@H](C(=O)NCC(=O)NCC(=O)N[C@@H](CCCCn1cc(CSCCNC(=O)CCNC(=O)[C@@H](O)C(C)(C)COP(=O)(O)OP(=O)(O)OC[C@H]2O[C@@H](n3cnc4c(N)ncnc43)[C@H](O)[C@@H]2OP(=O)(O)O)nn1)C(=O)N[C@@H](C)C(=O)N1CCC[C@H]1C(=O)N[C@@H](CCCNC(=N)N)C(=O)N[C@@H](CCCCN)C(N)=O)[C@@H](C)O | 1.7 | 33 | – | Unstable | Active | – |
| CC(=O)N[C@@H](C)C(=O)N[C@@H](CCCNC(=N)N)C(=O)N[C@@H](CCCCN)C(=O)N[C@@H](CO)C(=O)N[C@H](C(=O)NCC(=O)NCC(=O)N[C@@H](CCCCN=[N+]=[N-])C(=O)N[C@@H](C)C(=O)N1CCC[C@H]1C(=O)N[C@@H](CCCNC(=N)N)C(=O)N[C@@H](CCCCN)C(N)=O)[C@@H](C)O (Ac-ARKSTGG[Lys(N3)]APRK-NH2) | – | – | – | – | – | inactive |
| C#CCSCCNC(=O)CCNC(=O)[C@@H](O)C(C)(C)COP(=O)(O)OP(=O)(O)OC[C@H]1O[C@@H](n2cnc3c(N)ncnc32)[C@H](O)[C@@H]1OP(=O)(O)O | – | – | – | – | – | inactive |
| CC(=O)N[C@@H](C)C(=O)N[C@@H](CCCNC(=N)N)C(=O)N[C@@H](CCCCN)C(=O)N[C@@H](COP(=O)(O)O)C(=O)N[C@H](C(=O)NCC(=O)NCC(=O)N[C@@H](CCCCN=[N+]=[N-])C(=O)N[C@@H](C)C(=O)N1CCC[C@H]1C(=O)N[C@@H](CCCNC(=N)N)C(=O)N[C@@H](CCCCN)C(N)=O)[C@@H](C)O (Ac-ARK[pS]TGG[Lys(N3)]APRK-NH2) | – | – | – | – | – | inactive |
